Publication PMC6368365, “Didehydro-Cortistatin A Inhibits HIV-1 by Specifically Binding to the Unstructured Basic Region of Tat” (mBio, 2019)

How the values were obtained:
[1] = test system: export function of HIV Rev; assay: Viral mRNA export in NL4-3-infected CEM-SS cells (qRT-PCR); assay type: cell-based, HIV-1; details: dCA 30 nM, 24 hours
Text: If dCA were to bind the basic domain of Tat in its disordered form, then one would predict it might also bind to other basic peptide sequences and block their functions. The two well-known proteins that share a similar basic domain with Tat are HIV-1 Rev protein and the cellular protein Hexim-1 (Fig. 3A). As such, we investigated whether dCA could inhibit these similar basic domain functions. The basic domain of Rev is responsible for its nuclear localization ([31]); therefore, we assessed whether dCA could impact the subcellular localization of Rev (Fig. 3B) as previously shown for Tat ([10]). We transfected HeLa-CD4-LTR-Luc cells with a plasmid expressing FLAG-tagged Rev and assessed Rev localization in the presence of 100 nM dCA. […] Twenty-four hours later, cells were collected, and total, nuclear, and cytoplasmic mRNAs were extracted, reverse transcribed, and quantified by quantitative real-time PCR (qRT-PCR).
Cells were infected with the NL4-3 strain for 24 hours. […] Total, nuclear, and cytoplasmic mRNAs were extracted, and viral messages were measured by qRT-PCR. […] Statistical significance was determined using one-way ANOVA with post hoc Tukey’s test, comparing the DMSO condition to the other conditions. ***, P < 0.0001; **, P < 0.001; *, P < 0.01. […] Seventy hours later, viability was measured. […]

[2] = design: method as in PMID 22817991, PMID 29045830, PMID 25613133; details: cited from earlier work

CN(C)C1CC23CCC4(O2)C(=CCC2(C)C(c5ccc6ccncc6c5)=CCC24)C=C3C(O)C1O (centres unmarked) [dCA, didehydro-cortistatin A]
export function of HIV Rev in CEM-SS cells [1]: does not perturb the export function of HIV Rev in CEM-SS cells
solubility in water [2]: very soluble in water
